Measured values as given in ChEMBL document CHEMBL2021794, “Synthesis, σ₁, σ₂-receptors binding affinity and antiproliferative action of new C1-substituted adamantanes” (Bioorg Med Chem, 2012).
Active and inactive are the calls of the source. No cut-off for these calls is given here.

Assays:
[1] = tested on: PC-3; experiment: Cell cycle arrest in human PC3 cells assessed as accumulation at S phase at 5 uM after 24 hrs by propidium iodide staining based flow cytometry (reference value: 42%); format: functional
[2] = tested on: PC-3; experiment: Induction of apoptosis in human PC3 cells assessed as late apoptotic cells at 15 uM after 24 hrs by Annexin V/7-AAD staining based flow cytometry (reference value: 2%); format: functional
[3] = tested on: SF-268; experiment: Cytotoxicity against human SF268 cells after 48 hrs by trypan blue assay; format: functional, cell-based
[4] = tested on: BXPC-3; experiment: Cell cycle arrest in human BxPC3 cells assessed as accumulation at < G1 phase at 50 uM after 24 hrs by propidium iodide staining based flow cytometry (reference value: 9%); format: functional
[5] = tested on: PC-3; experiment: Cell cycle arrest in human PC3 cells assessed as accumulation at G1 phase at 5 uM after 24 hrs by propidium iodide staining based flow cytometry (reference value: 36%); format: functional
[6] = tested on: PC-3; experiment: Induction of apoptosis in human PC3 cells assessed as cleaved caspase-3 containing cells at 50 uM after 24 hrs by FACS analysis (reference value: 3%); format: functional
[7] = tested on: PC-3; experiment: Induction of apoptosis in human PC3 cells assessed as late apoptotic cells at 5 uM after 24 hrs by Annexin V/7-AAD staining based flow cytometry (reference value: 2%); format: functional
[8] = tested on: PC-3; experiment: Cell cycle arrest in human PC3 cells assessed as accumulation at < G1 phase at 15 uM after 24 hrs by propidium iodide staining based flow cytometry (reference value: 4%); format: functional
[9] = tested on: PC-3; experiment: Cell cycle arrest in human PC3 cells assessed as accumulation at G2 phase at 50 uM after 24 hrs by propidium iodide staining based flow cytometry (reference value: 13%); format: functional
[10] = tested on: BXPC-3; experiment: Induction of apoptosis in human BxPC3 cells assessed as cleaved caspase-3 containing cells at 50 uM after 24 hrs by FACS analysis (reference value: 10%); format: functional
[11] = tested on: PC-3; experiment: Growth inhibition of human PC3 cells after 48 hrs by SRB assay; format: functional; conditions: PC-3, 48 h
[12] = tested on: PC-3; experiment: Cell cycle arrest in human PC3 cells assessed as accumulation at < G1 phase at 5 uM after 24 hrs by propidium iodide staining based flow cytometry (reference value: 4%); format: functional
[13] = tested on: BXPC-3; experiment: Induction of apoptosis in human BxPC3 cells assessed as early apoptotic cells at 5 uM after 24 hrs by Annexin V/7-AAD staining based flow cytometry (reference value: 11%); format: functional
[14] = tested on: IGROV-1; experiment: Induction of apoptosis in human IGROV1 cells assessed as early apoptotic cells at 15 uM after 24 hrs by Annexin V/7-AAD staining based flow cytometry (reference value: 9%); format: functional
[15] = tested on: HCT-116; experiment: Cytotoxicity against human HCT116 cells after 48 hrs by trypan blue assay; format: functional, cell-based
[16] = tested on: IGROV-1; experiment: Induction of apoptosis in human IGROV1 cells assessed as healthy cells at 15 uM after 24 hrs by Annexin V/7-AAD staining based flow cytometry (reference value: 86%); format: functional
[17] = tested on: IGROV-1; experiment: Cell cycle arrest in human IGROV1 cells assessed as accumulation at >G2 phase at 5 uM after 24 hrs by propidium iodide staining based flow cytometry (reference value: 21%); format: functional
[18] = tested on: PC-3; experiment: Induction of apoptosis in human PC3 cells assessed as total apoptotic death cells at 5 uM after 24 hrs by Annexin V/7-AAD staining based flow cytometry (reference value: 7%); format: functional
[19] = tested on: Mus musculus; experiment: Analgesic activity against formalin-induced neuropathic pain in paclitaxel treated CD1 mouse assessed as decrease of time spent in paw licking at 100 mg/kg, po administered 14 days post paclitaxel dosing and 1 hr prior formalin challenge measured for 0 to 5 mins post formalin challenge; format: functional, organism-based; set-up: dose 100 mg/kg
[20] = tested on: IGROV-1; experiment: Induction of apoptosis in human IGROV1 cells assessed as cleaved caspase-3 containing cells at 5 uM after 24 hrs by FACS analysis (reference value: 4%); format: functional
[21] = tested on: PC-3; experiment: Cell cycle arrest in human PC3 cells assessed as accumulation at S phase at 50 uM after 24 hrs by propidium iodide staining based flow cytometry (reference value: 42%); format: functional
[22] = tested on: IGROV-1; experiment: Induction of apoptosis in human IGROV1 cells assessed as early apoptotic cells at 50 uM after 24 hrs by Annexin V/7-AAD staining based flow cytometry (reference value: 9%); format: functional
[23] = tested on: PC-3; experiment: Cell cycle arrest in human PC3 cells assessed as accumulation at >G2 phase at 5 uM after 24 hrs by propidium iodide staining based flow cytometry (reference value: 6%); format: functional
[24] = tested on: BXPC-3; experiment: Induction of apoptosis in human BxPC3 cells assessed as late apoptotic cells at 15 uM after 24 hrs by Annexin V/7-AAD staining based flow cytometry (reference value: 9%); format: functional
[25] = tested on: NCI-H460; experiment: Growth inhibition of human NCI-H460 cells after 48 hrs by SRB assay; format: functional; conditions: NCI-H460, 48 h
[26] = tested on: PC-3; experiment: Induction of apoptosis in human PC3 cells assessed as late apoptotic cells at 50 uM after 24 hrs by Annexin V/7-AAD staining based flow cytometry (reference value: 2%); format: functional
[27] = tested on: Mus musculus; experiment: Analgesic activity against formalin-induced neuropathic pain in paclitaxel treated CD1 mouse assessed as decrease of time spent in paw licking at 100 mg/kg, po administered 14 days post paclitaxel dosing and 1 hr prior formalin challenge measured for 35 to 40 mins post formalin challenge; format: functional, organism-based; set-up: dose 100 mg/kg
[28] = tested on: IGROV-1; experiment: Induction of apoptosis in human IGROV1 cells assessed as cleaved caspase-3 containing cells at 0.5 uM after 24 hrs by FACS analysis (reference value: 4%); format: functional
[29] = tested on: PC-3; experiment: Induction of apoptosis in human PC3 cells assessed as healthy cells at 0.5 uM after 24 hrs by Annexin V/7-AAD staining based flow cytometry (reference value: 92%); format: functional
[30] = tested on: IGROV-1; experiment: Cytotoxicity against human IGROV1 cells at 50 uM; format: functional, cell-based
[31] = Growth inhibition of human MSC cells after 48 hrs by SRB assay; format: cell-based
[32] = tested on: IGROV-1; experiment: Cell cycle arrest in human IGROV1 cells assessed as accumulation at G1 phase at 15 uM after 24 hrs by propidium iodide staining based flow cytometry (reference value: 27%); format: functional
[33] = tested on: BXPC-3; experiment: Induction of apoptosis in human BxPC3 cells assessed as total apoptotic death cells at 50 uM after 24 hrs by Annexin V/7-AAD staining based flow cytometry (reference value: 20%); format: functional
[34] = tested on: HCT-116; experiment: Growth inhibition of human HCT116 cells after 48 hrs by SRB assay; format: functional; conditions: HCT-116, 48 h
[35] = tested on: IGROV-1; experiment: Cell cycle arrest in human IGROV1 cells assessed as accumulation at >G2 phase at 15 uM after 24 hrs by propidium iodide staining based flow cytometry (reference value: 21%); format: functional
[36] = tested on: BXPC-3; experiment: Induction of apoptosis in human BxPC3 cells assessed as cleaved caspase-3 containing cells at 0.5 uM after 24 hrs by FACS analysis (reference value: 10%); format: functional
[37] = tested on: DMS-114; experiment: Growth inhibition of human DMS114 cells after 48 hrs by SRB assay; format: functional; conditions: DMS-114, 48 h
[38] = read-out: LC50 (the source's name)

## CN1CCN(c2ccc(C(c3ccccc3)C34CC5CC(CC(C5)C3)C4)cc2)CC1 (configuration not stated)
[1]
  Activity: 42%
[2]
  Activity: 3%
[3]
  Activity: Active
[4]
  Activity: 25%
[5]
  Activity: 34%
[6]
  Activity: 18%
[7]
  Activity: 2%
[8]
  Activity: 8%
[9]
  Activity: 10%
[10]
  Activity: 16%
[11]
  GI50: 6.8 µM
  TGI: 32.9 µM
[11]; [38]
  CC50: 100 µM
[12]
  Activity: 9%
[13]
  Activity: 17%
[14]
  Activity: 18%
[15]
  Activity: Active
[16]
  Activity: 62%
[17]
  Activity: 21%
[18]
  Activity: 7%
[19]
  Activity: Active
[20]
  Activity: 7%
[21]
  Activity: 34%
[22]
  Activity: 46%
[23]
  Activity: 5%
[24]
  Activity: 16%
[25]
  GI50: 4.41 µM
  LC50 (concentration killing 50% of cells): 100 µM
  TGI: 7.66 µM
[26]
  Activity: 9%
[27]
  Activity: Active
[28]
  Activity: 5%
[29]
  Activity: 95%
[30]
  Activity: Active
[31]; MSC cells
  GI50 at 48 h: 16.9 µM
[31]; msc, 48 h
  LC50: 91.56 µM
  TGI: 54.21 µM
[32]
  Activity: 21%
[33]
  Activity: 48%
[34]
  GI50: 4.92 µM
  TGI: 9.37 µM
[34]; [38]
  CC50: 100 µM
[35]
  Activity: 20%
[36]
  Activity: 3%
[37]
  GI50: 5.43 µM
  TGI: 9.17 µM
[37]; [38]
  CC50: 100 µM
